Values of other authors, collected in patent US20100130528A1, “ADAMANTANE MODULATORS OF NMDA RECEPTOR AND/OR 5HT3 RECEPTOR” (AUSPEX PHARMACEUTICALS, INC., priority 2008, published 2010).

Key:
[1] = in vivo
[2] = in man

Compound: CC12CC3CC(C)(C1)CC(N)(C3)C2 [memantine, 1-amino-3,5-dimethyl-adamantane]
- cytochrome P450 catalysed metabolism (cytochrome P450): No cytochrome P450 catalysed metabolism has been detected
- adverse effects [1]: fatigue, pain, hypertension, dizziness, headache, constipation, vomiting, confusion, somnolence, hallucination, cough, and dyspnea
- circulating memantine-related material present as the parent compound [2]: about 80%
